Experimental data: patent publication US10584115B2, “Substituted pyridine and pyrazine BMI-1 inhibitors” (PTC Therapeutics, Inc., priority 2013, dated 2020)

Test system: Bmi-1 protein
Assay: Sandwich ELISA Assay (Bmi-1 protein level in HT-1080 cells after compound treatment)
Type: cell-based
Details: Table 1, Bmi-1 sandwich ELISA, read-out: ELISA EC50 value for Bmi-1 protein
In short: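 Sandwich ELISA quantified Bmi-1 protein against recombinant standard (125–8000 pg/mL), with lysates captured overnight at 4 °C and signal by HRP/TMB at 450 nm (570 nm reference). Lysates came from HT-1080 cells incubated 40–48 h with test compounds in 0.5% DMSO.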

EC50 | SMILES
10 to 100 nM | N#Cc1cc(Nc2ccc(C(F)(F)F)nc2)nc(-c2c(CO)nc3ccc(F)cn23)c1 [compound 445, 2-[6-fluoro-2-(hydroxymethyl)imidazo[1,2-a]pyridin-3-yl]-6-{[6-(trifluoromethyl)pyridin-3-yl]amino}pyridine-4-carbonitrile]
100 to 3000 nM | N#Cc1cc(Nc2ccc(Cl)nc2)nc(-c2c(CO)nc3ccc(F)cn23)c1 [compound 446, 2-[(6-chloropyridin-3-yl)amino]-6-[6-fluoro-2-(hydroxymethyl)imidazo[1,2-a]pyridin-3-yl]pyridine-4-carbonitrile]
10 to 100 nM | CCc1nc2ncc(Cl)cc2n1-c1cc(C#N)cc(Nc2ccc(C(F)(F)F)cc2)n1 [compound 450, 2-(6-chloro-2-ethyl-1H-imidazo[4,5-b]pyridin-1-yl)-6-{[4-(trifluoromethyl)phenyl]amino}pyridine-4-carbonitrile]
1 to 10 nM | CCc1nc2ncc(Cl)cc2n1-c1cc(C#N)cc(Nc2ccc(OC(F)F)cc2)n1 [compound 451, 2-(6-chloro-2-ethyl-1H-imidazo[4,5-b]pyridin-1-yl)-6-{[4-(difluoromethoxy)phenyl]amino}pyridine-4-carbonitrile]
10 to 100 nM | CCc1nc2ncc(Cl)cc2n1-c1cc(C#N)cc(Nc2ccc(OC(F)F)cc2)n1 [compound 452, 2-(6-chloro-2-ethyl-1H-imidazo[4,5-b]pyridin-1-yl)-6-{[4-(difluoromethoxy)phenyl]amino}pyridine-4-carbonitrile]
10 to 100 nM | Cc1nc2ncc(F)cn2c1-c1cncc(Nc2ccc(C(F)(F)F)cc2)n1 [compound 453, 6-(6-fluoro-2-methylimidazo[1,2-a]pyrimidin-3-yl)-N-[4-(trifluoromethyl)phenyl]pyrazin-2-amine]
10 to 100 nM | Fc1cnc2nc(C3CC3)n(-c3cncc(Nc4ccc(OC(F)F)cc4)n3)c2c1 [compound 455, 6-(2-cyclopropyl-6-fluoro-1H-imidazo[4,5-b]pyridin-1-yl)-N-[4-(difluoromethoxy)phenyl]pyrazin-2-amine]
100 to 3000 nM | Fc1cnc2nc(C3CC3)n(-c3cncc(Nc4ccc(OC(F)(F)F)cc4)n3)c2c1 [compound 456, 6-(2-cyclopropyl-6-fluoro-1H-imidazo[4,5-b]pyridin-1-yl)-N-[4-(trifluoromethoxy)phenyl]pyrazin-2-amine]
100 to 3000 nM | Cc1nc2ccccc2n1-c1cncc(Nc2ccc(C(F)(F)F)cn2)n1 [compound 457, 6-(2-methyl-1H-benzimidazol-1-yl)-N-[5-(trifluoromethyl)pyridin-2-yl]pyrazin-2-amine]
100 to 3000 nM | Fc1cnc2nc(C3CC3)n(-c3cncc(Nc4ccc(C(F)(F)F)nc4)n3)c2c1 [compound 458, 6-(2-cyclopropyl-6-fluoro-1H-imidazo[4,5-b]pyridin-1-yl)-N-[6-(trifluoromethyl)pyridin-3-yl]pyrazin-2-amine]
10 to 100 nM | Fc1cnc2nc(C3CC3)n(-c3cncc(Nc4ccc(OC(F)F)c(F)c4)n3)c2c1 [compound 459, 6-(2-cyclopropyl-6-fluoro-1H-imidazo[4,5-b]pyridin-1-yl)-N-[4-(difluoromethoxy)-3-fluorophenyl]pyrazin-2-amine]
10 to 100 nM | Fc1cc2nc(C3CC3)n(-c3cncc(Nc4ccc(OC(F)F)cc4)n3)c2cc1F [compound 460, 6-(2-cyclopropyl-5,6-difluoro-1H-benzimidazol-1-yl)-N-[4-(difluoromethoxy)phenyl]pyrazin-2-amine]
10 to 100 nM | N#Cc1cc(Nc2ccc(OC(F)F)c(F)c2)nc(-n2c(C3CC3)nc3c(F)cc(F)cc32)c1 [compound 476, 2-(2-cyclopropyl-4,6-difluoro-1H-benzimidazol-1-yl)-6-{[4-(difluoromethoxy)-3-fluorophenyl]amino}pyridine-4-carbonitrile]
100 to 3000 nM | FC(F)Oc1ccc(Nc2cncc(-c3cnc4ccccn34)n2)cc1 [compound 477, N-[4-(difluoromethoxy)phenyl]-6-(imidazo[1,2-a]pyridin-3-yl)pyrazin-2-amine]
10 to 100 nM | N#Cc1cc(Nc2ccc(C(F)(F)F)cc2)nc(-n2c(C3CC3)nc3ncc(F)cc32)c1 [compound 490, 2-(2-cyclopropyl-6-fluoro-1H-imidazo[4,5-b]pyridin-1-yl)-6-{[4-(trifluoromethyl)phenyl]amino}pyridine-4-carbonitrile]
10 to 100 nM | Cc1nc2cc(F)c(F)cc2n1-c1c[n+]([O-])cc(Nc2ccc(C(F)(F)F)cc2)n1 [compound 495, 6-(5,6-difluoro-2-methyl-1H-benzimidazol-1-yl)-N-[4-(trifluoromethyl)phenyl]pyrazin-2-amine 4-oxide]

EC50 | SMILES
10 to 100 nM | Cc1nc2ccccc2n1-c1cc(N)cc(Nc2ccc(OC(F)F)cc2)n1 [compound 496, N^2-[4-(difluoromethoxy)phenyl]-6-(2-methyl-1H-benzimidazol-1-yl)pyridine-2,4-diamine]
1 to 10 nM | Cc1nn2ccccc2c1-c1cncc(Nc2ccc(OC(F)F)cc2)n1 [compound 498, N-[4-(difluoromethoxy)phenyl]-6-(2-methylpyrazolo[1,5-a]pyridin-3-yl)pyrazin-2-amine]
10 to 100 nM | Cc1nc2ccccc2n1-c1cc(F)cc(Nc2ccc(OC(F)F)cc2)n1 [compound 499, N-[4-(difluoromethoxy)phenyl]-4-fluoro-6-(2-methyl-1H-benzimidazol-1-yl)pyridin-2-amine]
10 to 100 nM | Cc1nn2ccccc2c1-c1cncc(Nc2ccc(OC(F)(F)F)cc2)n1 [compound 500, 6-(2-methylpyrazolo[1,5-a]pyridin-3-yl)-N-[4-(trifluoromethoxy)phenyl]pyrazin-2-amine]
10 to 100 nM | Cc1nc2cc(F)c(F)cc2n1-c1cncc(Nc2ccc(C=O)cc2)n1 [compound 502, 4-{[6-(5,6-difluoro-2-methyl-1H-benzimidazol-1-yl)pyrazin-2-yl]amino}benzaldehyde]
10 to 100 nM | CCc1nc2cc(F)c(F)cc2n1-c1cc(N)cc(Nc2ccc(C(F)(F)F)cc2)n1 [compound 503, 6-(2-ethyl-5,6-difluoro-1H-benzimidazol-1-yl)-N^2-[4-(trifluoromethyl)phenyl]pyridine-2,4-diamine]
10 to 100 nM | Nc1cc(Nc2ccc(C(F)(F)F)cc2)nc(-n2c(C3CC3)nc3cc(F)c(F)cc32)c1 [compound 504, 6-(2-cyclopropyl-5,6-difluoro-1H-benzimidazol-1-yl)-N^2-[4-(trifluoromethyl)phenyl]pyridine-2,4-diamine]
10 to 100 nM | Cc1nc2cc(F)c(F)cc2n1-c1cc(N)c(F)c(Nc2ccc(C(F)(F)F)cc2)n1 [compound 505, 6-(5,6-difluoro-2-methyl-1H-benzimidazol-1-yl)-3-fluoro-N^2-[4-(trifluoromethyl)phenyl]pyridine-2,4-diamine]
10 to 100 nM | Cc1nc2ccccc2n1-c1cncc(Nc2ccc(C(F)(F)F)c(N)c2)n1 [compound 506, N^1-[6-(2-methyl-1H-benzimidazol-1-yl)pyrazin-2-yl]-4-(trifluoromethyl)benzene-1,3-diamine]
10 to 100 nM | Cc1nc2ccccc2n1-c1cncc(Nc2ccc(C(F)F)cc2)n1 [compound 507, N-[4-(difluoromethyl)phenyl]-6-(2-methyl-1H-benzimidazol-1-yl)pyrazin-2-amine]
10 to 100 nM | Cc1nc2ccccc2n1-c1cncc(Nc2ccc(C(F)F)c(F)c2)n1 [compound 508, N-[4-(difluoromethyl)-3-fluorophenyl]-6-(2-methyl-1H-benzimidazol-1-yl)pyrazin-2-amine]
10 to 100 nM | CCc1nc2cc(F)c(F)cc2n1-c1cc(N)c(F)c(Nc2ccc(C(F)(F)F)cc2)n1 [compound 509, 6-(2-ethyl-5,6-difluoro-1H-benzimidazol-1-yl)-3-fluoro-N^2-[4-(trifluoromethyl)phenyl]pyridine-2,4-diamine]
10 to 100 nM | CCc1nc2ccccc2n1-c1cc(N)cc(Nc2ccc(C(F)(F)F)cc2)n1 [compound 510, 6-(2-ethyl-1H-benzimidazol-1-yl)-N^2-[4-(trifluoromethyl)phenyl]pyridine-2,4-diamine]
10 to 100 nM | Cc1nn2ccccc2c1-c1cc(C#N)cc(Nc2ccc(OC(F)F)cc2)n1 [compound 512, 2-{[4-(difluoromethoxy)phenyl]amino}-6-(2-methylpyrazolo[1,5-a]pyridin-3-yl)pyridine-4-carbonitrile]
10 to 100 nM | Cc1nn2ccccc2c1-c1cc(C#N)cc(Nc2ccc(OC(F)F)c(F)c2)n1 [compound 513, 2-{[4-(difluoromethoxy)-3-fluorophenyl]amino}-6-(2-methylpyrazolo[1,5-a]pyridin-3-yl)pyridine-4-carbonitrile]
100 to 3000 nM | Cc1nn2ccccc2c1-c1cc(C#N)cc(Nc2ccc(OC(F)(F)F)cc2)n1 [compound 514, 2-(2-methylpyrazolo[1,5-a]pyridin-3-yl)-6-{[4-(trifluoromethoxy)phenyl]amino}pyridine-4-carbonitrile]

Same assay, conditions: read-out: ELISA EC50 value for Bmi-1 protein, Table 1, Bmi-1 sandwich ELISA

SMILES | EC50
Cn1nc2c(c1-c1cncc(Nc3ccc(C(F)(F)F)cc3)n1)CCCC2 [compound 454, 6-(2-methyl-4,5,6,7-tetrahydro-2H-indazol-3-yl)-N-[4-(trifluoromethyl)phenyl]pyrazin-2-amine] | 1 to 10 nM
Cc1nc2ccccc2n1-c1ccc(N)c(Nc2ccc(C(F)(F)F)cc2)n1 [compound 465, 6-(2-methyl-1H-benzimidazol-1-yl)-N^2-[4-(trifluoromethyl)phenyl]pyridine-2,3-diamine] | 100 to 3000 nM
Cc1nn2ccccc2c1-c1cncc(Nc2ccc(C(F)(F)F)cc2)n1 [compound 497, 6-(2-methylpyrazolo[1,5-a]pyridin-3-yl)-N-[4-(trifluoromethyl)phenyl]pyrazin-2-amine] | 1 to 10 nM
Cc1nn2ccccc2c1-c1cc(C#N)cc(Nc2ccc(C(F)(F)F)cc2)n1 [compound 511, 2-(2-methylpyrazolo[1,5-a]pyridin-3-yl)-6-{[4-(trifluoromethyl)phenyl]amino}pyridine-4-carbonitrile] | 10 to 100 nM
